# According to US10533034B2, “Human iNKT cell activation using glycolipids” (ACADEMIA SINICA, priority 2014, dated 2020):
# Key:
# C1-pulsed splenocytes = experiment: CD1d dimer staining of in vivo C1-pulsed splenocytes; format: binding, B6 WT mice; details: CD3+/CD45R− gated; 3 days after C1 1 μg/mouse
# Procedure: B6 WT splenocytes (n=3) were harvested 3 days after injection with C1 (1 μg/mouse) and stained with CD3, CD45R and the indicated dimer complex conjugated with RPE for 1 hr at 4 degrees Celsius. (11A) CD3+/CD45R− cells were gated to analyze the dimer staining. (11B) unloaded dimer was used as the control. (11C) mCD1d dimer loaded with 7DW8-5-Glc stained 17.1±0.8% of C1-pulsed splenocytes. (11D) mCD1d dimer loaded with 7DW8-5 stained 36.2±5.0% of C1-pulsed splenocytes.
# mCD1d dimer = experiment: Binding strength of the binary complex between mCD1d and glycolipid (L363 antibody ELISA); parameters: species or system mouse
# Procedure: (10A, 10B) Different concentrations of mCD1d-glycolipid complexes coated on the ELISA plate were incubated with the saturated amount of L363 antibody conjugated with biotin, followed by streptavidin-HRP detection and ELISA measurement. (10A) The relationship between OD values reflecting L363 antibody binding and the concentration of CD1ddi-glycolipids complex was plotted. (10B) The dissociation constant (KD) between L363 antibody and the indicated mCD1d-glycolipid complex was calculated as described in Materials and methods. (10C) The relationship between OD values reflecting L363 antibody binding and the concentration of glycolipids was plotted. (10D) KD values of the binary complex were calculated from the linear regression of the Scatchard transformation of the L363 antibody binding curve (10C).
# Different concentrations of mCD1d^di-glycolipid complexes coated on the ELISA plate were incubated with the saturated amounts of L363 antibody (BioLegend) conjugated with biotin, followed by streptavidin-HRP detection and ELISA measurement. The KD between L363 antibody and the indicated mCD1d^di-glycolipid complex was calculated from the linear regression of the Scatchard transformation of the L363 antibody binding curve using GraphPad Prism software. […] Next, the KD of the binary complex was determined as follows. […]
# [1] = tested on: B6 Jα18 KO mice splenocytes; experiment: FACS analyses of Jα18 KO mouse immune cells after glycolipid stimulation; format: in vivo; details: 1 μg/mouse i.v.; 3 days
# Procedure: B6 Jα18 KO mice treated with the indicated glycolipid (1 μg/mouse) or vehicle (% DMSO in PBS) were sacrificed at 72 hr post-injection and their splenocytes were subjected to FACS analysis. (9A) The total splenocytes, (9B) total CD11Chi cells, (9C) CD11Chi/CD80+ cells, (9D) CD11Chi/CD86+ cells, (9E) CD4^+ T cells and (9F) CD8^+ T cells (student t test: *, p<0.05, as compared to D).
# (§1) B6 WT or Jα18 KO mice treated with specific glycolipid (1 μg/mouse) or vehicle (1% DMSO in PBS) were sacrificed at 72 hr post-injection and their spleens were harvested. After pressing spleens through 70 um strainer and lysis of erythrocytes, the nucleated cells were resuspended in PBS buffer containing azide (0.05%) and stained with antibodies recognizing the indicated cell surface antigens for 30 min at 4° C. After washing, the splenocytes were subjected to FACS analysis. The antibodies against CD3, CD4, CD8α, CD11c, CD80, and CD86 were obtained from BD Bioscience-Pharmingen.
# Unexpectedly, we also observed that 7DW8-5-Glc induced chemokines in Jα18 KO mice (FIG. 7).
# B6 WT mice splenocytes = experiment: FACS analyses of WT mouse immune cells after glycolipid stimulation; format: in vivo; details: 1 μg/mouse; 3 days
# Procedure: B6 WT mice treated with the indicated glycolipid (1 μg/mouse) or vehicle (1% DMSO in PBS) were sacrificed at 72 hr post-injection and their splenocytes were subjected to FACS analysis. (8A) The total splenocytes, (8B) total CD11Chi cells, (8C) CD11Chi/CD80+ cells, (8D) CD11Chi/CD86+ cells, (8E) CD4^+ T cells and (8F) CD8^+ T cells.
# as §1
# Next, we analyzed the expansion/activation of immune cells in WT mice 3 days after glycolipid stimulation. The numbers of total T cells, CD4^+ T and CD8^+ T cells were higher in mice treated by GSLs with αGal head than those treated by GSLs with αGlc (FIGS. 2C, 8E and 8F). This was in line with the observation that more cytokines/chemokines were induced by GSLs with αGal than GSLs with αGlc in mice (FIGS. 2A, 2B and 7). […] As compared to 7DW8-5-Glc, C1-Glc not only expanded ˜1.3 fold more splenocytes and DCs (FIGS. 8A and 8B) but also activated ˜3.5 fold more CD80^+ DCs as well as ˜3 fold more CD86^+ DCs (FIGS. 8C and 8D). The increased expansion/activation of DCs may contribute to the stronger immunogenicity triggered by C1-Glc and C34-Glc as compared to 7DW8-5-Glc in vivo.
Structure (SMILES),percentage of C1-pulsed splenocytes stained by mCD1d dimer loaded with glycolipid (C1-pulsed splenocytes) [%],"binding avidity to mCD1d dimer, fold greater than αGalCer (mCD1d dimer) [fold]","total splenocytes, CD4+ T and CD8+ T cells in Jα18 KO mice [1]",expansion/activation of CD11chi monocyte-derived DCs in Jα18 KO mice [1],expansion of immune cells in WT mice (B6 WT mice splenocytes)
"CCCCCCCCCCCCCC[C@@H](O)[C@@H](O)[C@H](CO[C@H]1O[C@H](CO)[C@H](O)[C@H](O)[C@H]1O)NC(=O)CCCCCCCCCCc1ccc(F)cc1 [Compound 7DW8-5, reference compound]",36.2±5.0,~20,No significant differences,,
CC[C@@H](O)[C@@H](O)[C@H](CO[C@H]1OC(CO)[C@@H](O)C(O)C1O)NC(=O)Cc1ccc(F)cc1 (some centres unmarked) [Compound 7DW8-5-Glc],17.1±0.8,~20,No significant differences,significantly expanded and activated,
CCCCCCCCCCCCCC[C@@H](O)[C@@H](O)[C@H](CO[C@H]1O[C@H](CO)[C@@H](O)[C@H](O)[C@@H]1O)NC(=O)CCCCCCCCCCc1ccc(F)cc1 [Compound 7DW8-5-Man],,,,,did not expand any types of immune cells
